Test results taken from patent US7811797B2, “α-isomaltosylglucosaccharide-forming enzyme, process and uses of the same” (Kabushiki Kaisha Hayashibara Seibutsu Kagaku Kenkyujo, priority 2000, dated 2010).
Where two headings read alike, the source gives them in different places.

How the values were obtained:
[1] = test system: α-isomaltosylglucosaccharide-forming enzyme; assay: Influence of metal ions on the activity of α-isomaltosylglucosaccharide-forming enzyme (Strain A19); assay type: biochemical, Arthrobacter globiformis A19; settings: for Relative activity (%): 1 mM of each metal-ion
[2] = test system: α-isomaltosyl-transferring enzyme; assay: Influence of metal ions on the activity of α-isomaltosyl-transferring enzyme (Strain N75); assay type: biochemical, Bacillus globisporus N75; settings: for Relative activity (%): 1 mM of each metal-ion
Description: (§1) The α-isomaltosyl-transferring enzyme was assayed for enzymatic activity by dissolving panose in 100 mM acetate buffer (pH 6.0) to give a concentration of 2% (w/v) for a substrate solution, adding a 0.5 ml of an enzyme solution to 0.5 ml of the substrate solution, enzymatically reacting the mixture solution at 35° C. for 30 min, suspending the reaction mixture by boiling for 10 min, and quantifying glucose, among the cyclotetrasaccharide and glucose formed in the reaction mixture, by the glucose oxidase method. One unit activity of the α-isomaltosyl-transferring enzyme is defined as the enzyme amount that forms one micromole of glucose per minute under the above enzymatic reaction conditions. Throughout the specification, the enzymatic activity of the α-isomaltosyl-transferring enzyme means the unit(s) assayed as above.
(§2) The influence of metal ions on the activity of α-isomaltosyl-transferring enzyme was examined in the presence of 1 mM of each metal-ion according to the assay for the enzyme activity.

[3] = test system: α-isomaltosylglucosaccharide-forming enzyme; assay: Influence of metal ions on the activity of α-isomaltosylglucosaccharide-forming enzyme (Strain C11); assay type: biochemical, Bacillus globisporus C11; settings: for Relative activity (%): 1 mM of each metal-ion; for influence on the enzyme activity, in words: 1 mM
Description: (§3) One unit activity of the α-isomaltosylglucosaccharide-forming enzyme is defined as the enzyme amount that forms one micromole of maltose per minute under the above enzymatic reaction conditions. Throughout the specification, the enzymatic activity of the α-isomaltosylglucosaccharide-forming enzyme means the unit(s) assayed as above.
The influence of metal ions on the activity of α-isomaltosylglucosaccharide forming enzyme was examined in the presence of 1 mM of each metal-ion according to the assay for the enzyme activity.

[4] = test system: α-isomaltosylglucosaccharide-forming enzyme; assay: Influence of metal ions on the activity of α-isomaltosylglucosaccharide-forming enzyme (Strain C9); assay type: biochemical, Bacillus globisporus C9; settings: 1 mM of each metal-ion
Description: as §3
(§4) The influence of metal ions on the activity of α-isomaltosylglucosaccharide-forming enzyme was examined in the presence of 1 mM of each metal-ion according to the assay for the enzyme activity.

[5] = test system: α-isomaltosyl-transferring enzyme; assay type: biochemical, Bacillus globisporus C11; settings: 1 mM of each metal-ion
Description: as §1, §2

[6] = test system: α-isomaltosyl-transferring enzyme; assay: Influence of metal ions on the activity of α-isomaltosyl-transferring enzyme (Strain S1); assay type: biochemical, Arthrobacter ramosus S1; settings: for Relative activity (%): 1 mM of each metal-ion
Description: as §1, §2

[7] = test system: α-isomaltosyl-transferring enzyme; assay: Influence of metal ions on the activity of α-isomaltosyl-transferring enzyme (Strain C9); assay type: biochemical, Bacillus globisporus C9; settings: for Relative activity (%): 1 mM of each metal-ion
Description: as §1, with “above. […]” for “above.”

[8] = test system: α-isomaltosylglucosaccharide-forming enzyme; assay: Influence of metal ions on the activity of α-isomaltosylglucosaccharide-forming enzyme (Strain N75); assay type: biochemical, Bacillus globisporus N75; settings: for Relative activity (%): 1 mM of each metal-ion; for influence on the enzyme activity, in words: 1 mM
Description: as §3, §4

[9] = test system: α-isomaltosylglucosaccharide-forming enzyme; assay: Action on saccharides (substrates), Enzyme of Strain C9; assay type: biochemical, Bacillus globisporus C9; design: key: −: it showed no change; +: it showed a slight reduction of the color spot of the substrate and the formation of other reaction product; ++: it showed a high reduction of the color spot of the substrate and the formation of other reaction product; +++: it showed a substantial disappearance of the substrate spot and the formation of other reaction product; settings: two units/g substrate, substrate 2% (w/v), 30° C., pH 6.0, 24 hours, TLC
Description: (§5) It was tested whether saccharides can be used as substrates for the α-isomaltosylglucosaccharide-forming enzyme. For the purpose, a solution of maltose, maltotriose, maltotetraose, maltopentaose, maltohexaose, maltoheptaose, isomaltose, isomaltotriose, panose, isopanose, trehalose, kojibiose, nigerose, neotrehalose, cellobiose, gentibiose, maltitol, maltotriitol, lactose, sucrose, erlose, selaginose, maltosyl glucoside, or isomaltosyl glucoside was prepared.
(§6) To each of the above solutions was added two units/g substrate of a purified specimen of α-isomaltosylglucosaccharide-forming enzyme from either Bacillus globisporus C9 obtained by the method in Experiment 4-2, Bacillus globisporus C11 obtained by the method in Experiment 7-2, Bacillus globisporus N75 obtained by the method in Experiment 11-2, or Arthrobacter globiformis A19 obtained by the method in Experiment 15-2, and the resulting each solution was adjusted to give a substrate concentration of 2% (w/v) and incubated at 30° C. and pH 6.0, except for using pH 8.4 for the enzyme from Arthrobacter globiformis A19, for 24 hours. The enzyme solutions before and after the enzymatic reactions were respectively analyzed on TLC disclosed in Experiment 1 to confirm whether the enzymes acted on these substrates.

[10] = test system: α-isomaltosylglucosaccharide-forming enzyme; assay: Transfer-acceptor specificity, Enzyme of Strain A19; assay type: biochemical, Arthrobacter globiformis A19; settings: acceptor 1.6%, PINE-DEX #100 donor 4%, one unit/g donor, 30° C., pH 8.4, 24 hours
Outline: (§7)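 Each candidate acceptor at 1.6% was combined with 4% partial starch hydrolysate donor and 1 unit/g donor (d.s.b.) of purified enzyme. Incubation ran 24 h at 30 °C, pH 6.0 for the C9, C11 and N75 enzymes and pH 8.4 for A19. Transfer products were detected by GLC for mono- and disaccharide acceptors and HPLC for trisaccharide acceptors.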

[11] = test system: α-isomaltosylglucosaccharide-forming enzyme; assay: Action on saccharides (substrates), Enzyme of Strain N75; assay type: biochemical, Bacillus globisporus N75; design: key: −: it showed no change; +: it showed a slight reduction of the color spot of the substrate and the formation of other reaction product; ++: it showed a high reduction of the color spot of the substrate and the formation of other reaction product; +++: it showed a substantial disappearance of the substrate spot and the formation of other reaction product; settings: two units/g substrate, substrate 2% (w/v), 30° C., pH 6.0, 24 hours, TLC
Description: as §5, §6

[12] = test system: α-isomaltosylglucosaccharide-forming enzyme; assay: Transfer-acceptor specificity, Enzyme of Strain C9; assay type: biochemical, Bacillus globisporus C9; settings: acceptor 1.6%, PINE-DEX #100 donor 4%, one unit/g donor, 30° C., pH 6.0, 24 hours
Outline: as §7

[13] = test system: α-isomaltosylglucosaccharide-forming enzyme; assay: Action on saccharides (substrates), Enzyme of Strain C11; assay type: biochemical, Bacillus globisporus C11; design: key: −: it showed no change; +: it showed a slight reduction of the color spot of the substrate and the formation of other reaction product; ++: it showed a high reduction of the color spot of the substrate and the formation of other reaction product; +++: it showed a substantial disappearance of the substrate spot and the formation of other reaction product; settings: two units/g substrate, substrate 2% (w/v), 30° C., pH 6.0, 24 hours, TLC
Description: as §5, §6

[14] = test system: α-isomaltosylglucosaccharide-forming enzyme; assay: Transfer-acceptor specificity, Enzyme of Strain C11; assay type: biochemical, Bacillus globisporus C11; settings: acceptor 1.6%, PINE-DEX #100 donor 4%, one unit/g donor, 30° C., pH 6.0, 24 hours
[15] = test system: α-isomaltosylglucosaccharide-forming enzyme; assay: Action on saccharides (substrates), Enzyme of Strain A19; assay type: biochemical, Arthrobacter globiformis A19; design: key: −: it showed no change; +: it showed a slight reduction of the color spot of the substrate and the formation of other reaction product; ++: it showed a high reduction of the color spot of the substrate and the formation of other reaction product; +++: it showed a substantial disappearance of the substrate spot and the formation of other reaction product; settings: two units/g substrate, substrate 2% (w/v), 30° C., pH 8.4, 24 hours, TLC
Description: as §5, §6

[16] = test system: α-isomaltosylglucosaccharide-forming enzyme; assay: Transfer-acceptor specificity, Enzyme of Strain N75; assay type: biochemical, Bacillus globisporus N75; settings: acceptor 1.6%, PINE-DEX #100 donor 4%, one unit/g donor, 30° C., pH 6.0, 24 hours
Outline: as §7

Row | SMILES | Relative activity (%) [1] [%] | Relative activity (%) [2] [%] | Relative activity (%) [3] [%] | Relative activity (%) [4] [%] | Relative activity (%) [5] [%] | Relative activity (%) [6] [%] | Relative activity (%) [7] [%] | Relative activity (%) [8] [%] | also measured
1 | [Pb+2] [Pb^2+] | 43 | 69 | 101 | 103 | 74 | 85 | 89 | 86 | 
2 | [Mn+2] [Mn^2+] |  |  | 142 | 111 |  |  | 106 | 120 | influence on the enzyme activity, in words [3]: activated; influence on the enzyme activity, in words [8]: activated
3 | [Cu+2] [Cu^2+] | 0 | 15 | 23 | 15 | 56 | 2 | 57 | 7 | influence on the enzyme activity, in words ([1]; 1 mM): greatly inhibited; influence on the enzyme activity, in words ([2]; 1 mM): also inhibited; influence on the enzyme activity, in words [3]: greatly inhibited; influence on the enzyme activity, in words ([6]; 1 mM): also inhibited; influence on the enzyme activity, in words ([7]; 1 mM): also inhibited; influence on the enzyme activity, in words [8]: greatly inhibited
4 | [Fe+2] [Fe^2+] | 36 |  |  |  |  |  |  | 82 | Relative activity (%) ([1]; listed as Fe^3+): 35%; Relative activity (%) ([2]; listed as Fe^3+): 90%; Relative activity (%) ([5]; listed as Fe^3+): 88%; Relative activity (%) ([6]; listed as Fe^3+): 75%
5 | O=C[C@H](O)[C@@H](O)[C@H](O[C@@H]1O[C@H](CO)[C@@H](O)[C@H](O)[C@H]1O)[C@H](O)CO [Cellobiose] |  |  |  |  |  |  |  |  | Enzymatic action, Enzyme of Strain C9 [9]: −; Product of transferring reaction, Enzyme of Stain A19 [10]: ++ (a saccharide-transferred product was detected in an amount over ten percent through transfer reaction to acceptor); Enzymatic action, Enzyme of Strain N75 [11]: −; Product of transferring reaction, Enzyme of Strain C9 [12]: ++ (a saccharide-transferred product was detected in an amount over ten percent through transfer reaction to acceptor); Enzymatic action, Enzyme of Strain C11 [13]: −; Product of transferring reaction, Enzyme of Strain C11 [14]: ++ (a saccharide-transferred product was detected in an amount over ten percent through transfer reaction to acceptor); Enzymatic action, Enzyme of Strain A19 [15]: −; Product of transferring reaction, Enzyme of Strain N75 [16]: ++ (a saccharide-transferred product was detected in an amount over ten percent through transfer reaction to acceptor)
6 | OC[C@H]1O[C@@](CO)(O[C@H]2O[C@H](CO)[C@@H](O)[C@H](O)[C@H]2O)[C@@H](O)[C@@H]1O [Sucrose] |  |  |  |  |  |  |  |  | Enzymatic action, Enzyme of Strain C9 [9]: −; Product of transferring reaction, Enzyme of Stain A19 [10]: ++ (a saccharide-transferred product was detected in an amount over ten percent through transfer reaction to acceptor); Enzymatic action, Enzyme of Strain N75 [11]: −; Product of transferring reaction, Enzyme of Strain C9 [12]: ++ (a saccharide-transferred product was detected in an amount over ten percent through transfer reaction to acceptor); Enzymatic action, Enzyme of Strain C11 [13]: −; Product of transferring reaction, Enzyme of Strain C11 [14]: ++ (a saccharide-transferred product was detected in an amount over ten percent through transfer reaction to acceptor); Enzymatic action, Enzyme of Strain A19 [15]: −; Product of transferring reaction, Enzyme of Strain N75 [16]: ++ (a saccharide-transferred product was detected in an amount over ten percent through transfer reaction to acceptor)
7 | [Ni+2] [Ni^2+] | 46 | 91 |  |  | 89 | 87 | 102 |  | 
8 | [Al+3] [Al^3+] | 37 | 94 |  |  | 89 | 93 | 103 |  | 
